We go through 15 molecules from patent US20230348376A1 (TEIJIN PHARMA LIMITED, priority 2020, published 2023).

Data set [1] can be described thus: Evaluation of brain penetration in mice (blood and brain concentration at brain Cmax). Format: in vivo, mouse. To be noted: 1 mg/kg single oral dose, C57BL/6J mice; for Concentration in blood (mean ± SD) at brain Cmax / Concentration in brain (mean ± SD) at brain Cmax: n=3; for Kp: male, C57BL/6J, mouse, brain/plasma, po, 1 mg/kg, read-out: Concentration in brain/in blood ratio at brain Cmax. As for the experimental part: The administration solution was administered orally to C57BL/6J mice (8 weeks old, male, n=3) at a single dose (1 mg/kg). Mice were euthanized at 6 points of 0.25, 0.5, 1, 2, 4, and 8 hours after administration, and plasma and brain sampling were performed. After preparing a homogenate from the collected brain using Tissue Lyser II (QIAGEN #85300), acetonitrile was added to the homogenate and the homogenate was centrifuged (12000 rpm, 5 minutes) to extract the administered test compound contained in the brain. Similarly, the plasma was subjected to addition of acetonitrile and centrifugal separation to extract the administered test compound contained in the plasma. Each extracted sample was subjected to measurement of the concentration of administered test compound using LC/MS/MS (SHIMADZU UFLC/MS/MS (8050)).
Test 2 [0.2 mg/kg Administration Study] […] The administration solution was administered orally to C57BL/6J mice (8 weeks old, male, n=3) at a single dose (0.2 mg/kg). Mice were euthanized at 6 points of 0.25, 0.5, 1, 2, 4, and 8 hours after administration, and plasma and brain sampling were performed. After preparing a homogenate from the collected brain using Tissue Lyser II (QIAGEN #85300), acetonitrile was added to the homogenate and the homogenate was centrifuged (12000 rpm, 5 minutes) to extract the administered compound contained in the brain. Similarly, the plasma was subjected to addition of acetonitrile and centrifugal separation to extract the administered test compound contained in the plasma. Each extracted sample was subjected to measurement of the concentration of administered test compound using LC/MS/MS (SHIMADZU UFLC/MS/MS (8050)).

Data set [2] has as its target T1, human VDR (Homo sapiens, UniProt P11473).
T1 sequence (P11473 1-427): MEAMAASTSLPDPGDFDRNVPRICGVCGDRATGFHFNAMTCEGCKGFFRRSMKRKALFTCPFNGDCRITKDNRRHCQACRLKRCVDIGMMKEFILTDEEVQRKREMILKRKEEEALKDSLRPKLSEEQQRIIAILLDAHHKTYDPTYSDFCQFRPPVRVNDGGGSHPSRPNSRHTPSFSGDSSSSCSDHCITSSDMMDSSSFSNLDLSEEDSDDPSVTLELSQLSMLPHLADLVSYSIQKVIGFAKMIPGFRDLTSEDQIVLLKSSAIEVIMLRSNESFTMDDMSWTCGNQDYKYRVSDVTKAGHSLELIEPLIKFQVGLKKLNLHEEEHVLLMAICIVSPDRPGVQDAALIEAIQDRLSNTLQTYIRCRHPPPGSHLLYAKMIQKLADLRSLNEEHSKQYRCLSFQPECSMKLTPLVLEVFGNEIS
T1 sequence (P19793 1-462 partner): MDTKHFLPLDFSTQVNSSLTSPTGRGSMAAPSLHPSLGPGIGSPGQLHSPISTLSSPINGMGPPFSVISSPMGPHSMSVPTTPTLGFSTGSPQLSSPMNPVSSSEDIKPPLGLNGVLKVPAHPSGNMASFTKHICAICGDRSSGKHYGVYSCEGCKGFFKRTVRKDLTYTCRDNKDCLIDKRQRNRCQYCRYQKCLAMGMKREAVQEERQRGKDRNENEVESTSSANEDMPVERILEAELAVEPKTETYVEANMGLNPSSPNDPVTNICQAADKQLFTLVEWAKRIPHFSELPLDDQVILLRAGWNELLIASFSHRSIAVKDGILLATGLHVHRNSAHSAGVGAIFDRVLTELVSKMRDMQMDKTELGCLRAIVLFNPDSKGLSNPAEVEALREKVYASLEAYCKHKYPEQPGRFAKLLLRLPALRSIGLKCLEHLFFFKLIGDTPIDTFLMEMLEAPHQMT
The data set can be described thus: Evaluation of VDR transcription activity in human osteoblasts (HOS cells), luciferase reporter. The settings on record: HOS cells transfected with human VDR, human RXRα and DR3 luciferase reporter, 21 hours.

[3] abbreviates: Activity (EC50, VDR transcription activity).

Read-outs that look alike come from different tables or passages of the source. Some results are limits rather than exact numbers.

As to `C[C@H](CN1CCC(O)(C(F)(F)F)C1)[C@H]1CC[C@H]2/C(=C/C=C3C[C@@H](O)C[C@H](O)C3)CCC[C@]12C` (single isomer, unassigned) [Compound B045a], in data set [1], the “Concentration in blood (mean ± SD) at brain Cmax” value turned out to be 530 ± 97 nM, the “Concentration in brain (mean ± SD) at brain Cmax” value is 185 ± 116 pmol/g and the Kp was 0.35. The EC50 in data set [2] (setting [3]) is < 1 nM.
With `C[C@H](CN1CCC(O)(C(F)(F)F)C1)[C@H]1CC[C@H]2/C(=C/C=C3C[C@@H](O)C[C@H](O)C3)CCC[C@]12C` (single isomer, unassigned) [Compound B045b], in data set [1], the “Concentration in brain/in blood ratio at brain Cmax” value came to 0.25, the “Concentration in blood (mean ± SD) at brain Cmax” value is recorded as 444 ± 113 nM and the “Concentration in brain (mean ± SD) at brain Cmax” value was 109 ± 22 pmol/g. Besides, in data set [2] (read-out: Activity (EC50, VDR transcription activity)), the concentration for a half-maximal effect (EC50) was < 1 nM.
As for `C=C1/C(=C\C=C2/CCC[C@]3(C)[C@@H]([C@@H](C)CN4CC[C@H](F)C4)CC[C@@H]23)C[C@@H](O)C[C@@H]1O` [Compound B018, (1R,3S,Z)-5-(2-((1R,3aS,7aR,E)-1-((R)-1-((S)-3-fluoropyrrolidin-1-yl)propan-2-yl)-7a-methyloctahydro-4H-inden-4-ylidene)ethylidene)-4-methylenecyclohexane-1,3-diol], in data set [1], the “Concentration in blood (mean ± SD) at brain Cmax” value is reported as 841 ± 197 nM, the “Concentration in brain (mean ± SD) at brain Cmax” value is reported as 533 ± 197 pmol/g and the Kp is 0.63. The molecule further had an EC50 in data set [2] (setting [3]) of 10 to 100 nM.
The like results for `C[C@H](CN1CCC(O)(C(F)(F)F)CC1)[C@H]1CC[C@H]2/C(=C/C=C3C[C@@H](O)C[C@H](O)C3)CCC[C@]12C` [Compound C002, (1R,3R)-5-(2-((1R,3aS,7aR,E)-1-((S)-1-(4-hydroxy-4-(trifluoromethyl)piperidin-1-yl)propan-2-yl)-7a-methyloctahydro-4H-inden-4-ylidene)ethylidene)cyclohexane-1,3-diol] were, in that order, 402 ± 38 nM, 156 ± 14 pmol/g, 0.39 and 10 to 100 nM.
For `C=C1/C(=C\C=C2/CCC[C@]3(C)[C@@H]([C@@H](C)CN4CCC(O)(C(F)(F)F)CC4)CC[C@@H]23)C[C@@H](O)[C@H](C)[C@@H]1O` [Compound C006], in that order: 510 ± 55 nM, 239 ± 23 pmol/g, 0.47 and < 1 nM.
For `C=C1[C@H](O)CC(=C/C=C2\CCC[C@]3(C)[C@@H]([C@@H](C)CN4CCC(C(F)F)CC4)CC[C@@H]23)C[C@H]1O` [Compound C019], in that order: 335 ± 85 nM, 614 ± 153 pmol/g, 1.83 and 1 to 10 nM.
As to `C[C@H](CN1CCC[C@](C)(O)C1)[C@H]1CC[C@H]2/C(=C/C=C3C[C@@H](O)C[C@H](O)C3)CCC[C@]12C` [Compound C039, (1R,3R)-5-(2-((1R,3aS,7aR,E)-1-((S)-1-((S)-3-hydroxy-3-methylpiperidin-1-yl)propan-2-yl)-7a-methyloctahydro-4H-inden-4-ylidene)ethylidene)cyclohexane-1,3-diol], in data set [1], the “Concentration in blood (mean ± SD) at brain Cmax” value was found to be 132 ± 15 nM, the “Concentration in brain (mean ± SD) at brain Cmax” value was 101 ± 8 pmol/g and the Kp amounted to 0.77. Besides, the EC50 in data set [2] (setting [3]) is 1 to 10 nM.
For `C=C1[C@H](O)CC(=C/C=C2\CCC[C@]3(C)[C@@H]([C@H](C)CN4CCC(CC(F)F)CC4)CC[C@@H]23)C[C@H]1O` [Compound C059, (1R,3R)-5-(2-((1R,3aS,7aR,E)-1-((S)-1-(4-(2,2-difluoroethyl)piperidin-1-yl)propan-2-yl)-7a-methyloctahydro-4H-inden-4-ylidene)ethylidene)-2-methylenecyclohexane-1,3-diol], in that order: 167 ± 29 nM, 241 ± 21 pmol/g, 1.44 and 10 to 100 nM.
The molecule `C=C1[C@H](O)CC(=C/C=C2\CCC[C@]3(C)[C@@H]([C@H](C)CCN4CCO[C@H](C(F)F)C4)CC[C@@H]23)C[C@H]1O` [Compound D033, (1R,3R)-5-(2-((1R,3aS,7aR,E)-1-((R)-4-((S)-2-(difluoromethyl)morpholino)butan-2-yl)-7a-methyloctahydro-4H-inden-4-ylidene)ethylidene)-2-methylenecyclohexane-1,3-diol] registered an EC50 in data set [2] (setting [3]) of 1 to 10 nM.
For the molecule `C[C@H](CCN1CCO[C@H](C(F)F)C1)[C@H]1CC[C@H]2/C(=C/C=C3C[C@@H](O)C[C@H](O)C3)CCC[C@]12C` [Compound D034, (1R,3R)-5-(2-((1R,3aS,7aR,E)-1-((R)-4-((S)-2-(difluoromethyl)morpholino)butan-2-yl)-7a-methyloctahydro-4H-inden-4-ylidene)ethylidene)cyclohexane-1,3-diol], in data set [2] (setting [3]), the concentration giving a half-maximal response (EC50) lay within 10 to 100 nM.
The same measure, in the same setting: in the case of `C=C1/C(=C\C=C2/CCC[C@]3(C)[C@@H]([C@H](C)CCN4CCO[C@H](C(F)F)C4)CC[C@@H]23)C[C@@H](O)C[C@@H]1O` [Compound D035, (1R,3S,Z)-5-(2-((1R,3aS,7aR,E)-1-((R)-4-((S)-2-(difluoromethyl)morpholino)butan-2-yl)-7a-methyloctahydro-4H-inden-4-ylidene)ethylidene)-4-methyloctahydro-1,3-diol] it was 10 to 100 nM; in that of `C=C1[C@H](O)CC(=C/C=C2\CCC[C@]3(C)[C@@H]([C@H](C)CCN4CCO[C@@H](C(F)F)C4)CC[C@@H]23)C[C@H]1O` [Compound D036, (1R,3R)-5-(2-((1R,3aS,7aR,E)-1-((R)-4-((R)-2-(difluoromethyl)morpholino)butan-2-yl)-7a-methyloctahydro-4H-inden-4-ylidene)ethylidene)-2-methylenecyclohexane-1,3-diol], 1 to 10 nM; in that of `C=C1[C@H](O)CC(=C/C=C2\CCC[C@]3(C)[C@@H]([C@H](C)CCN4C[C@@H](C)OC[C@H]4C)CC[C@@H]23)C[C@H]1O` [Compound D039, (1R,3R)-5-(2-((1R,3aS,7aR,E)-1-((R)-4-((2R,5R)-2,5-dimethylmorpholino)butan-2-yl)-7a-methyloctahydro-4H-inden-4-ylidene)ethylidene)-2-methylenecyclohexane-1,3-diol], 1 to 10 nM.
On the same count and under the same terms, in the case of `C=C1[C@H](O)CC(=C/C=C2\CCC[C@]3(C)[C@@H]([C@H](C)CCN4CCO[C@H](C)C4)CC[C@@H]23)C[C@H]1O` [Compound D040, (1R,3R)-5-(2-((1R,3aS,7aR,E)-7a-methyl-1-((R)-4-((R)-2-methylmorpholino)butan-2-yl)octahydro-4H-inden-4-ylidene)ethylidene)-2-methylenecyclohexane-1,3-diol] it was 1 to 10 nM; in that of `C[C@H](CCN1CCOCC1(C)C)[C@H]1CC[C@H]2/C(=C/C=C3C[C@@H](O)C[C@H](O)C3)CCC[C@]12C` [Compound D049, (1R,3R)-5-(2-((1R,3aS,7aR,E)-1-((R)-4-(3,3-dimethylmorpholino)butan-2-yl)-7a-methyloctahydro-4H-inden-4-ylidene)ethylidene)cyclohexane-1,3-diol], 100 to 1000 nM.

As usually defined, the EC50 is the concentration at which the effect is half-maximal.
